Measured values taken from US20100160443A1, “COMPOUNDS USEFUL FOR TREATING NEUROLOGICAL DISORDERS” (Yissum Research Development Company of The Hebrew …, priority 2003, published 2010).
“Also recorded” adds a separate entry of the source.

Columns and labels:
[1] = system: neuropathic pain due to spinal cord injury; conditions: double-blind placebo-controlled trial; cited from earlier work
[2] = system: tactile allodynia in rats with SNL neuropathy; assay: Tactile allodynia (von Frey filaments) in the spinal nerve ligation (SNL) model of neuropathic pain; format: in vivo, rat
Procedure: The effect on neuropathic pain (tactile allodynia) was measured 5-6 days following operation as disclosed above. Rats responding to mechanical stimuli of 10 g or less (in the operated leg) were eligible for the study and were included in the drug administration regime.
Briefly, under ketamine-xylazine anesthesia the rat was placed in a prone position and the left paraspinal muscles were separated from spinous processes at the L4-S2 level. Part of the L6 transverse process was removed and the L4-L6 spinal nerves were identified. The L5-L6 spinal nerves were isolated and tightly ligated and cut, distal to the dorsal root ganglion and proximal to the formation of the sciatic nerve. Following complete homeostasis the wound was sutured.
A volume of 4 ml/kg (volume of injected suspension/rat body weight) was then injected to the rats. […] The three drugs and the control vehicle were administered i.p. (intraperitoneally) to rats at postoperative days 7, 14 and 21 in a double blind randomized crossover manner.
The rat was placed on a metal mesh floor covered with a transparent plastic dome, a period of acclimatization was allowed prior to testing. VFFs were applied from underneath the mesh floor to the plantar surface of the foot. Each trial consisted of repeated applications of each of the VFFs in an ascending order for 5 times, each for a period of 1 second. testing between two consecutive ascending VFFs was separated by period of 2 min. If the rat withdrew the foot at least 3 times out of 5 at a specific VFF no further ascending filaments were tested and this filament was considered as a withdrawal threshold (response). Mechanical stimulus trials with the series of ascending VFF were repeated 2 times for a given time point. The repeated measurements were averaged and taken as the paw withdrawal threshold on a given time point.
The absolute threshold and the difference in the allodynic threshold (time point minus baseline) values were tested using Mann-Whitney Test and Kruskal-Wallis Nonparametric test (two tailed) followed by Dunn's Multiple comparison test. The ED50 (median effective dose) was calculated by using Probit analysis method.
Briefly, under ketamine-xylazine anesthesia (85 mg kg^−1, i.p and 13 mg kg^−1, i.p, respectively) rats were placed in a prone position and paraspinal muscles on the left were separated from the L4-S2 spinous processes. Part of the L6 transverse process was removed and the underlying L4-L6 spinal nerves were identified. The L5 and L6 spinal nerves were isolated, tightly ligated with 5-0 silk, and cut just distal to the ligature. The ligature was approximately 8 mm distal to the corresponding dorsal root ganglion (DRG). Following complete homeostasis the wound was sutured in layers, the skin closed with Michel clips, topical bacteriostatic power was applied, and 20000 units of duplo-penicillin was injected intramuscularly (i.m.).
We used a set of 9 nylon von Frey monofilaments (VFF, Semmes-Weinstein monofilaments, Stoelting, Wood Dale, Ill., USA) to quantify foot withdrawal in response to normally innocuous tactile stimuli. […] Forces were calibrated by lowering filaments onto the pan of an electronic balance until they just bent.
Rats were placed on a raised wire mesh screen (gaps 4 mm×4 mm), which allowed access to the plantar surface of the hindpaw from below. They were covered with a transparent plastic dome, 13 cm high, which prevented rearing on the hindlimbs. A period of 20 min was allowed for acclimation prior to sensory testing. The mid-plantar hindpaw skin just caudal to the footpads, half way between medial and lateral edges of the foot, was subjected to a series of 5 brief probes, spaced at about 1 s. Each such stimulus was sufficient to just bend the filament. Testing began with the filament with the weakest initial bending force (0.6 g). […] Response threshold was the bending force of the first monofilament in the series that evoked a criterion ≧⅗ responses.

[3] = system: maximal electroshock (MES) test; conditions: rat, in vivo, po; cited from earlier work

SMILES | pain relief versus placebo [1] | rats relieved from tactile allodynia at the highest dose tested ([2]; VPA 400 mg kg^−1 i.p.) | dose dependence of the antiallodynic effect ([2]; i.p., rat) | lowest effective dose (significant increase of the allodynic threshold vs vehicle) ([2]; i.p., rat) | time of maximal effect after administration ([2]; i.p., rat) | ED50 (tactile allodynia) ([2]; i.p., rat, 60 min after dosing) | SNL-ED50 ([2]; i.p., rat, 60 min post injection, DID at 120 min) | ED50 ([2]; ip, 1 h, i.p., rat, 60 min after administration, protected = threshold of at least 15 g, read-out: ED50 (tactile allodynia threshold)) | antiallodynic effect / effectiveness for treating neuropathic pain ([2]; rat, in vivo) | ED50 (tactile allodynia) ([2]; rat, in vivo, ip) | SNL-ED50 ([2]; rat, in vivo, ip) | dose dependence of the antiallodynic effect ([2]; rat, in vivo, ip) | lowest effective dose (significant increase of the allodynic threshold vs vehicle) ([2]; rat, in vivo, ip) | rats with no response to 15 g or above VFF at the highest dose tested ([2]; rat, in vivo, ip) | time of maximal effect after administration ([2]; rat, in vivo, ip) | MES-ED50 [3]
CCCC(CCC)C(=O)O [VPA, Valproic acid, reference compound] | no difference between VPA and placebo in relieving pain | 88% | in a dose dependent manner; also recorded: in a dose-dependent manner | 300 mg/kg | 60 min | 269 mg/kg | 269 mg/kg | 269 mg/kg | – | – | – | – | – | – | – | –
CC(C)C(C(N)=O)C(C)C [DID, diisopropylacetamide] | – | – | – | – | – | – | – | – | effective for treating neuropathic pain | 58 mg/kg | 58 mg/kg | dose-related antiallodynic activity | 20 mg/kg | 63% | 120 min | 51 mg/kg
